From patent US20240285634A1, “COMPOUND AND METHOD FOR TREATING CHEMOTHERAPY-ASSOCIATED GASTROINTESTINAL SIDE EFFECTS” (ONQUALITY PHARMACEUTICALS CHINA LTD., priority 2021, published 2024)

Test system: Chemotherapeutic agent-caused constipation models of Balb/c mice
Assay: Relieving effect on constipation caused by a chemotherapeutic agent (Examples 202-364)
Format: in vivo
Text: Construction of mouse animal models: Chemotherapeutic agent-caused constipation models of Balb/c mice were constructed according to the administration mode and frequency of the chemotherapeutic agent as shown in Table 4. […] Thus, chemotherapeutic agent-caused constipation models of mice are very good models to mimic constipation caused by the chemotherapeutic agent.
Balb/c mice were fed for 1 week, and then divided into groups. The experiment was divided into a control group, a chemotherapeutic agent group, and a group of the compound as shown in Formula I, each of which comprised 10 mice, to perform the administration experiment, for which the administration dosage, mode, time and frequency were shown in Table 4. The control group: being injected or intragastrically administered with the same solvent as that used in the group of the compound as shown in Formula I (the administration mode and time were shown in Table 4), and then being injected or intragastrically administered with the same solvent as that used in the chemotherapeutic agent group (the administration mode was shown in Table 4); the chemotherapeutic agent group: being injected or intragastrically administered with the same solvent as that used in the group of the compound as shown in Formula I (the administration mode and time was shown in Table 4), and then being injected or intragastrically administered with the chemotherapeutic agent (the type, administration mode and dosage were shown in Table 4); the group of the compound as shown in Formula I: being injected or intragastrically administered with the compound as shown in Formula I (the administration mode and time was shown in Table 4), and then being administered with the chemotherapeutic agent (the administration mode and dosage were shown in Table 4).
The feces reduction rate was calculated with reference to the method of Ji Eun Kim (Lab Anim Res. 2016 December; 32(4): 231-240.). Feces reduction rate (%)=(the control group−the chemotherapeutic agent group or the group of the compound as shown in Formula I)/the control group*100%
It is regarded as effective remission when the feces reduction rate of mice in the group of the compound as shown in Formula I is reduced compared with that in the chemotherapeutic agent group.
The feces amount of mice within 3 hours was observed and recorded every day. At the end of the experiment, the number of mice in the group of the compound as shown in Formula I whose feces reduction rate was lower than that of mice in the chemotherapeutic agent group was recorded. Table 4 lists various animal experiment combinations of chemotherapeutic agents and the compound as shown in Formula I, as well as the corresponding experimental results.

In the case of `CN1CCN(c2ccc(Nc3ncc4cc5n(c4n3)C3(CCCCC3)CNC5=O)nc2)CC1` [Compound I, Trilaciclib], the “Relative remission rate (%)” value (Example 303, Irinotecan (CPT-11) intraperitoneal injection 260 mg/kg single, compound intravenous injection 150 mg/kg single, 22 h before chemotherapeutic agent, cycle 8 days) is reported as 40%, the “Relative remission rate (%)” value (Example 304, Irinotecan (CPT-11) intraperitoneal injection 260 mg/kg single, compound intravenous injection 150 mg/kg single, 24 h before chemotherapeutic agent, cycle 8 days) is reported as 40% and the “Relative remission rate (%)” value (Example 305, Irinotecan (CPT-11) intraperitoneal injection 260 mg/kg single, compound intravenous injection 150 mg/kg single, 48 h before chemotherapeutic agent, cycle 8 days) is reported as 0%. For the same compound, the “Relative remission rate (%)” value (Example 306, Irinotecan (CPT-11) oral administration 300 mg/kg single, compound intraperitoneal injection 100 mg/kg single, 24 h before chemotherapeutic agent, cycle 10 days) was 60%, the “Relative remission rate (%)” value (Example 307, Irinotecan (CPT-11) intramuscular injection 260 mg/kg single, compound intramuscular injection 100 mg/kg single, 1 h before chemotherapeutic agent, cycle 7 days) was 60% and the “Relative remission rate (%)” value (Example 308, Irinotecan (CPT-11) intravenous injection 260 mg/kg single, compound oral administration 100 mg/kg single, 12 h before chemotherapeutic agent, cycle 7 days) was 50%. For the same compound, the “Relative remission rate (%)” value (Example 309, Fluorouracil 125 (F) and irinotecan 240 (I) mg/kg intravenous injection single, compound intravenous injection 100 mg/kg single, 0.5 h before chemotherapeutic agent, cycle 10 days) was 40%, the “Relative remission rate (%)” value (Example 310, Fluorouracil 125 (F) and irinotecan 240 (I) mg/kg intravenous injection single, compound intravenous injection 100 mg/kg single, 4 h before chemotherapeutic agent, cycle 10 days) was 60% and the “Relative remission rate (%)” value (Example 311, Fluorouracil 125 (F) and irinotecan 240 (I) mg/kg intravenous injection single, compound intravenous injection 100 mg/kg single, 8 h before chemotherapeutic agent, cycle 10 days) was 60%. The “Relative remission rate (%)” value (Example 312, Fluorouracil 125 (F) and irinotecan 240 (I) mg/kg intravenous injection single, compound intravenous injection 100 mg/kg single, 12 h before chemotherapeutic agent, cycle 10 days) was 70%, the “Relative remission rate (%)” value (Example 313, Fluorouracil 125 (F) and irinotecan 240 (I) mg/kg intravenous injection single, compound intravenous injection 100 mg/kg single, 24 h before chemotherapeutic agent, cycle 10 days) was 50% and the “Relative remission rate (%)” value (Example 314, Fluorouracil 125 (F) and irinotecan 240 (I) mg/kg intravenous injection single, compound intravenous injection 100 mg/kg single, 48 h before chemotherapeutic agent, cycle 10 days) was 0%. For the same compound, the “Relative remission rate (%)” value (Example 318, Fluorouracil 125 (F) and irinotecan 240 (I) mg/kg intraperitoneal injection single, compound intraperitoneal injection 100 mg/kg single, 1 h before chemotherapeutic agent, cycle 7 days) was 40%, the “Relative remission rate (%)” value (Example 319, Fluorouracil 125 (F) and irinotecan 240 (I) mg/kg intraperitoneal injection single, compound intraperitoneal injection 100 mg/kg single, 12 h before chemotherapeutic agent, cycle 7 days) was 50% and the “Relative remission rate (%)” value (Example 322, Fluorouracil 100 (F) and oxaliplatin 5 (O) and irinotecan 100 (I) mg/kg intraperitoneal injection single, compound intraperitoneal injection 300 mg/kg single, 0.5 h before chemotherapeutic agent, cycle 8 days) was 30%. The “Relative remission rate (%)” value (Example 323, Fluorouracil 100 (F) and oxaliplatin 5 (O) and irinotecan 100 (I) mg/kg intraperitoneal injection single, compound intraperitoneal injection 300 mg/kg single, 4 h before chemotherapeutic agent, cycle 8 days) was 30%, the “Relative remission rate (%)” value (Example 324, Fluorouracil 100 (F) and oxaliplatin 5 (O) and irinotecan 100 (I) mg/kg intraperitoneal injection single, compound intraperitoneal injection 300 mg/kg single, 8 h before chemotherapeutic agent, cycle 8 days) was 60% and the “Relative remission rate (%)” value (Example 325, Fluorouracil 100 (F) and oxaliplatin 5 (O) and irinotecan 100 (I) mg/kg intraperitoneal injection single, compound intraperitoneal injection 300 mg/kg single, 12 h before chemotherapeutic agent, cycle 8 days) was 50%. The “Relative remission rate (%)” value (Example 326, Fluorouracil 100 (F) and oxaliplatin 5 (O) and irinotecan 100 (I) mg/kg intraperitoneal injection single, compound intraperitoneal injection 300 mg/kg single, 24 h before chemotherapeutic agent, cycle 8 days) was 40%, the “Relative remission rate (%)” value (Example 327, Fluorouracil 100 (F) and oxaliplatin 5 (O) and irinotecan 100 (I) mg/kg intraperitoneal injection single, compound intraperitoneal injection 300 mg/kg single, 48 h before chemotherapeutic agent, cycle 8 days) was 0% and the “Relative remission rate (%)” value (Example 328, Fluorouracil 100 (F), oxaliplatin 5 (O), irinotecan 100 (I) and tetrahydrofolic acid 100 (L) mg/kg intravenous injection single, compound intravenous injection 100 mg/kg single, 0.5 h before chemotherapeutic agent, cycle 8 days) was 20%. For the same compound, the “Relative remission rate (%)” value (Example 329, Fluorouracil 100 (F), oxaliplatin 5 (O), irinotecan 100 (I) and tetrahydrofolic acid 100 (L) mg/kg intravenous injection single, compound intravenous injection 100 mg/kg single, 1 h before chemotherapeutic agent, cycle 8 days) was 30%, the “Relative remission rate (%)” value (Example 330, Fluorouracil 100 (F), oxaliplatin 5 (O), irinotecan 100 (I) and tetrahydrofolic acid 100 (L) mg/kg intravenous injection single, compound intravenous injection 100 mg/kg single, 2 h before chemotherapeutic agent, cycle 8 days) was 30% and the “Relative remission rate (%)” value (Example 331, Fluorouracil 100 (F), oxaliplatin 5 (O), irinotecan 100 (I) and tetrahydrofolic acid 100 (L) mg/kg intravenous injection single, compound intravenous injection 100 mg/kg single, 3 h before chemotherapeutic agent, cycle 8 days) was 50%. The “Relative remission rate (%)” value (Example 332, Fluorouracil 100 (F), oxaliplatin 5 (O), irinotecan 100 (I) and tetrahydrofolic acid 100 (L) mg/kg intravenous injection single, compound intravenous injection 100 mg/kg single, 4 h before chemotherapeutic agent, cycle 8 days) was 50%, the “Relative remission rate (%)” value (Example 333, Fluorouracil 100 (F), oxaliplatin 5 (O), irinotecan 100 (I) and tetrahydrofolic acid 100 (L) mg/kg intravenous injection single, compound intravenous injection 100 mg/kg single, 6 h before chemotherapeutic agent, cycle 8 days) was 40% and the “Relative remission rate (%)” value (Example 334, Fluorouracil 100 (F), oxaliplatin 5 (O), irinotecan 100 (I) and tetrahydrofolic acid 100 (L) mg/kg intravenous injection single, compound intravenous injection 100 mg/kg single, 8 h before chemotherapeutic agent, cycle 8 days) was 60%. For the same compound, the “Relative remission rate (%)” value (Example 335, Fluorouracil 100 (F), oxaliplatin 5 (O), irinotecan 100 (I) and tetrahydrofolic acid 100 (L) mg/kg intravenous injection single, compound intravenous injection 100 mg/kg single, 10 h before chemotherapeutic agent, cycle 8 days) was 60%.
